Source: PMC12616682, “Identification of a Highly Cooperative PROTAC Degrader Targeting GTP-Loaded KRAS(On) Alleles” (Journal of the American Chemical Society, 2025)
Read-outs that look alike come from different tables or passages of the source.

Tests used:
[1] = molecular target: T1, KRAS^G12D in GP5d cells (Homo sapiens, UniProt P01116, G12D); assay: Endogenous KRAS degradation by Western blot in GP5d cells; format: cell-based
T1 construct: comparison of the degradative effect on endogenous KRAS; host or cells: GP5d

[2] = molecular target: T2, KRAS^G12R in Cal-62 cells (Homo sapiens, UniProt P01116, G12R); assay: Endogenous KRAS degradation by Western blot in Cal-62 cells; format: cell-based; conditions: Cal-62 (G12R)
T2 construct: Potent degradation of endogenous KRAS^G12R was achieved by ACBI4 in the Cal-62 cell line; host or cells: Cal-62

[3] = molecular target: T3, KRAS^G12R in KP-2 cells (Homo sapiens, UniProt P01116, G12R); assay: Endogenous KRAS degradation by Western blot in KP-2 cells; format: cell-based; conditions: KP-2 (G12R)
T3 construct: host or cells: KP-2

[4] = molecular target: T4, KRAS^Q61K in Calu-6 cells (Homo sapiens, UniProt P01116, Q61K); assay: Endogenous KRAS degradation by Western blot in Calu-6 cells; format: cell-based; conditions: Calu-6 (Q61K)
T4 construct: host or cells: Calu-6

[5] = molecular target: T5, KRAS^Q61L in SW948 cells (Homo sapiens, UniProt P01116, Q61L); assay: Endogenous KRAS degradation by Western blot in SW948 cells; format: cell-based
T5 construct: host or cells: SW948

[6] = molecular target: T6, HiBiT-KRAS^G12D in GP5d cells (Homo sapiens, UniProt P01116, G12D); assay: HiBiT degradation assay, HiBiT-KRAS^G12D GP5d cells; format: cell-based; conditions: for Dmax / DC50: Gp5D (HiBit-G12D)
T6 construct: host or cells: GP5d HiBiT KRAS G12D

[7] = molecular target: T7, HiBiT-KRAS^G12R in Cal-62 cells (Homo sapiens, UniProt P01116, G12R); assay: HiBiT degradation assay, HiBiT-KRAS^G12R Cal-62 cells; format: cell-based; conditions: Cal-62 (HiBitG12R)
T7 construct: generated a HiBiT-KRAS^G12R Cal-62 knock-in cell line using the CRISPR Cas9 technology; endogenous in cells; host or cells: Cal-62 HiBiT KRAS G12R (in-house CRISPR knock-in)
Procedure: (Gibco) with 10% FBS in a humidiﬁed cell incubator at 37 °C and 5% CO2.
Plasmids pSpCas9 BB-2A-GFP (PX458) containing gRNA, Cas9 and GFP sequences and […] plasmid containing ssDNA donor template were purchased from Genscript. Cal-62 cells were plated at 5x10^5 cells in a 6-well plate and left to adhere overnight. The next day, the transfection plasmids (0.5 µg of each gRNA plasmid and 0.5 µg of donor template) were diluted in Opti-MEM, combined with Lipofectamine solution in Opti-mem according to the manufacturer’s protocol and incubated for 20 min at RT. The mixture was added to the cells and incubated for 24 h. The next day the media was exchanged, and the cells were left to incubate for another 24 h. GFP positive cells were single-cell sorted into 96-well plates using ﬂuorescence-activated cell sorting (FACS) at the Flow Cytometry and Cell Sorting Facility (University of Dundee). Sorted cells were left to grow in conditioned media supplemented with 20% FBS for 3 weeks. Formed colonies were tested for the expression of HiBiT KRAS using the Nano-Glo® HiBiT Lytic system (Promega). The positive clones were additionally tested for insertion of the HiBiT tag by western blotting for KRAS (mouse anti-KRAS, LsBio) and HiBiT (mouse anti-HiBiT, Promega) and the insert was further conﬁrmed by Sanger sequencing. […]
gRNA1: 5’ […] 3’, gRNA2: 5’ […] 3’, gRNA 3: 5’ […]
template DNA: 5’ caatccagctt tatttgacac tcattctctc aactctcatc tgattcttac tgttaatatt tatccaagag aactactgcc atgatgcttt aaaagttttt ctgtagctgt tgcatattga cttctaacac ttagaggtgg gggtccacta ggaaaactgt aacaataaga gtggagatag ctgtcagcaa cttttgtgag ggtgtgctac agggtgtaga gcactgtgaa gtctctacat gagtgaagtc atgatatgat cctttgagag cctttagccg ccgcagaaca gcagtctggc tatttagata gaacaacttg attttaagat aaaagaactg tctatgtagc atttatgcat ttttcttaag cgtcgatgga ggagtttgta aatgaagtac agttcattac gatacacgtc tgcagtcaac tggaattttc atgattgaat tttgtaaggt attttgaaat aatttttcat ataaaggtga gtttgtatta aaaggtactg gtggagtatt tgatagtgta ttaaccttat gtgtgacatg ttctaatata gtcacatttt cattattttt attataaggc ctgctgaaa […]
atg[…]act gaGtaCaaGctCgtAgtagttggag ctCgtggc gta ggc aag agt gcc ttA acAatCcaActaattcagaatcat tttgtggacg aatatgatcc aacaatagag gtaaatcttg ttttaatatg catattactg gtgcaggacc attctttgat acagataaag gtttctctga ccattttcat gagtacttat tacaagataa ttatgctgaa agttaagtta tctgaaatgt accttgggtt tcaagttata tgtaaccatt aatatgggaa ctttactttc cttgggagta tgtcagggtc catgatgttc actctctgtg cattttgatt ggaagtgtat ttcagagttt cgtgagaggg tagaaatttg tatcctatct ggacctaaaa gacaatcttt ttattgtaac ttttattttt atgggtttct tggtattgtg acatcatatg taaaggttag atttaattgt actagtgaaa tataattgtt tgatggttga tttttttaaa cttcatcagc agtattttcc tatcttcttc tcaacattag agaacctaca actaccggat aaattttaca aaatgaatta tttgcctaag gtgtggttta tataaaggta ctattaccaa ctttaccttt gctttgttgt catttttaaa tttactcaag gaaatactag gatttaaaaa aaaattcctt 3’
Degradation via Detection of Split Nanoluciferase (HiBiT)
To assess PROTAC-mediated degradation of HiBiT-tagged KRAS constructs, cells were seeded at […]
further incubated at 37 °C for 4 and 24 h. Following incubation, 20 µL per well of Promega Nano-Glo® HiBiT lytic detection reagent mix (Promega Nano-Glo® HiBiT Lytic Detection System […]
plotted as percent of DMSO control.

[8] = molecular target: T7, HiBiT-KRAS^G12R in Cal-62 cells; assay: Kinetic degradation (live mode), Cal-62 HiBiT KRAS^G12R cells; format: cell-based; conditions: Cal62-HiBit (G12R)
[9] = system: Cal-62 cells; assay: CellTiter-Glo anti-proliferation, Cal-62; format: cell-based, human; conditions: Cal-62 (G12R)
[10] = system: Calu-6 cells; assay: CellTiter-Glo anti-proliferation, Calu-6; format: cell-based, human; conditions: Calu-6 (Q61K)
[11] = molecular target: KRAS^WT-GDP (Homo sapiens, UniProt P01116); assay: Binary SPR KRAS^WT-GDP (protocol from Lito et al.); conditions: read-out: KRAS^WT-GDP KD
[12] = Homo sapiens, 72 h, read-out: CTG 72h Ic50

Row | Compound | Dmax ([1]; 4 h, read-out: DMax 4h) | DC50 ([1]; 4 h, read-out: Dc50 4h) | Dmax ([1]; 18 h, read-out: DMax 18h) | Dmax ([2]; 18 h, read-out: DMax 18h) | DC50 ([2]; 18 h, read-out: Dc50 18h) | Dmax ([3]; 18 h, read-out: DMax 18h) | DC50 ([3]; 18 h, read-out: Dc50 18h) | Dmax ([4]; 4 h, read-out: DMax 4h) | Dc50 4h ([5]; 4 h) | Dmax ([5]; 18 h, read-out: DMax 18h) | Dmax ([6]; 4 h, read-out: DMax 4h) | DC50 ([6]; 4 h, read-out: Dc50 4h) | Dmax ([6]; 24 h, read-out: DMax 24h) | DC50 ([6]; 24 h, read-out: Dc50 24h) | Dmax ([7]; 24 h, read-out: DMax 24h) | DC50 ([7]; 24 h, read-out: Dc50 24h) | 1/K (Tau) [8] | Plateau (degradation rate) [8] | Plateu/ Tau [8] | further results
1 | CC(C)C(C(=O)N1C[C@H](O)C[C@H]1C(=O)NCc1ccc2cnn(C)c2c1)n1nnc2c1CCC(CCCN1CCCN(c3nccc(-c4noc([C@@]5(C)CCCc6sc(N)c(C#N)c65)n4)n3)[C@@H](C)C1)C2 (mixture of isomers) [Compound 4] | 83.5% | 68 nM | 96.5% | 93% | 418 nM | 70% | 224 nM | 25% | unstable | 50% | 83% | 14 nM | 94% | 4 nM | 87% | 183 nM | 1.972 µM | 0.2614 min⁻¹ | 2207 M⁻¹ s⁻¹ | DC50 ([1]; 18 h, read-out: Dc50 18h): 16 nM; Dmax ([2]; 4 h, read-out: DMax 4h): 64%; DC50 ([2]; 4 h, read-out: Dc50 4h): 1530 nM; Dmax ([3]; 4 h, read-out: DMax 4h): 37%; DC50 ([3]; 4 h, read-out: Dc50 4h): 6 nM; DC50 ([4]; 4 h, read-out: Dc50 4h): 146 nM; Dmax ([4]; 18 h, read-out: DMax 18h): 72%; DC50 ([4]; 18 h, read-out: Dc50 18h): 187 nM; Dmax ([5]; 4 h, read-out: DMax 4h): 49%; Dc50 18h ([5]; 18 h): unstable; fold improvement in DC50 over 3 ([6]; HiBiT-KRAS^G12D, 24 h): ~9 fold; Dmax ([7]; 4 h, read-out: DMax 4h): 76%; DC50 ([7]; 4 h, read-out: Dc50 4h): 163 nM; IC50 [9, 12]: 488 nM; CTG 72h Ic50 [10]: unstable
2 | Cc1ncsc1-c1ccc([C@H](CO)NC(=O)[C@@H]2C[C@@H](O)CN2C(=O)[C@H](C(C)C)n2cc(OCCCCN3CCCN(c4nccc(-c5noc([C@@]6(C)CCCc7sc(N)c(C#N)c76)n5)n4)[C@@H](C)C3)nn2)cc1 [ACBI3, reference compound] | 98.3% | 7.3 nM | 100% | 9% | 282 nM | 50% | 961 nM | 11% | unstable | 45% | 79% | 9.9 nM | 94% | 2.5 nM | 31% | 114 nM | unstable | unstable | unstable | DMax 4h ([2]; 4 h): unstable; Dc50 4h ([2]; 4 h): unstable; DMax 4h ([3]; 4 h): unstable; Dc50 4h ([3]; 4 h): unstable; Dc50 4h ([4]; 4 h): unstable; DMax 18h ([4]; 18 h): unstable; Dc50 18h ([4]; 18 h): unstable; DMax 4h ([5]; 4 h): unstable; DC50 ([5]; 18 h, read-out: Dc50 18h): 10000 nM; DMax 4h ([7]; 4 h): unstable; Dc50 4h ([7]; 4 h): unstable; CTG 72h Ic50 [9]: unstable; IC50 [10, 12]: 338 nM; Kd [11]: 4.9 ± 2.6 nM
